According to patent US20250328351A1, “CARBONIC ANHYDRASE INHIBITORS AND ANTIBIOTICS AGAINST MULTIDRUG RESISTANT BACTERIA” (Purdue Research Foundation, priority 2018, published 2025):
≈ marks a conversion by molar mass, not a printed value.

How the values were obtained:
[1] = system: Bacteroides dorei CL02T12C06 HM-719; assay: MIC against human normal gut microbiota; assay type: cell-based; conditions: Phocaeicola dorei; Table 3; BHIS broth, anaerobic, 48 hours; read-out: MIC
How it was run: (§1)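 Compounds were serially diluted against ~5×10^5 CFU/ml inocula for 48 h at 37° C. Bacteroides and Bifidobacterium were tested in BHIS broth anaerobically, Lactobacillus in MRS broth under 5% CO2.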

[2] = system: Bacteroides fragilis CL07T00C01 HM-709; assay: MIC against human normal gut microbiota; assay type: cell-based; conditions: Table 3, BHIS broth, anaerobic, 48 hours, read-out: MIC
How it was run: as §1

[3] = system: Bifidobacterium breve JCP7499 HM 1120; assay: MIC against human normal gut microbiota; assay type: cell-based; conditions: JCP7499HM1120, Table 3, BHIS broth, anaerobic, 48 hours, read-out: MIC
How it was run: as §1

[4] = system: Bifidobacterium longum subsp. Longum 44B HM 845; assay: MIC against human normal gut microbiota; assay type: cell-based; conditions: Table 3, BHIS broth, anaerobic, 48 hours
How it was run: as §1

[5] = system: Lactobacillus casei ATCC 334; assay: MIC against human normal gut microbiota; assay type: cell-based; conditions: Lacticaseibacillus casei, ATCC334; Table 3; MRS broth, 5% CO2, 48 hours
How it was run: as §1

[6] = system: Lactobacillus gasseri EX336960VC03 HM-400; assay: MIC against human normal gut microbiota; assay type: cell-based; conditions: Table 3, MRS broth, 5% CO2, 48 hours
How it was run: as §1

[7] = system: Mutant-15 of Enterococcus fecalis NR 31975; assay: microbe, parasite or virus in culture; assay type: cell-based
VERO cells = assay: In vitro cytotoxicity, MTS assay; assay type: cell-based, monkey; conditions: concentration up to 128 μg/mL; two hours incubation
Method: Toxicity assessment: Compounds AS005H, AS005J, AS004B, AS005K, AS005A and 005D were assayed (at concentrations of 64 and 128 μg/mL) against a fibroblast-like monkey kidney cell line (VERO cell) to determine the potential toxic effect in vitro. Briefly, cells were cultured in Minimum Essential Medium (MEM) supplemented with 10% fetal bovine serum (FBS), 1 mM sodium pyruvate, and penicillin-streptomycin at 37° C. with CO2 (5%). Control cells received DMSO alone at a concentration equal to that in drug-treated cell samples. The cells were incubated with the compounds (in triplicate) in a 96-well plate at 37° C. with CO2 (5%) for two hours. The assay reagent MTS 3-(4,5-dimethylthiazol-2-yl)-5-(3-carboxymethoxyphenyl)-2-(4-sulfophenyl)-2H-tetrazolium) (Promega, Madison, WI, USA) was subsequently added and the plate was incubated for four hours. Absorbance readings (at OD490) were taken using a kinetic microplate reader (Molecular Devices, Sunnyvale, CA, USA). The quantity of viable cells after treatment with each compound was expressed as a percentage of the viability of DMSO-treated control cells (average of triplicate wells±standard deviation). The toxicity data was analyzed via a two-way ANOVA, with post hoc Dunnet's multiple comparisons test (P<0.05), utilizing GraphPad Prism 6.0 (GraphPad Software, La Jolla, CA).
(§2) Percent viable mammalian cells (measured as average absorbance ratio (test agent relative to DMSO) for cytotoxicity analysis of compounds AS005H, AS005J, AS004B, AS005K, AS005A and 005D (tested in triplicates) at 64 and 128 μg/mL against VERO cells using the MTS 3-(4,5-dimethylthiazol-2-yl)-5-(3-carboxymethoxyphenyl)-2-(4-sulfophenyl)-2H-tetrazolium) assay. Dimethyl sulfoxide (DMSO) was used as a negative control to determine a baseline measurement for the cytotoxic impact of each compound. The absorbance values represent an average of a minimum of three samples analyzed for each compound. Error bars represent standard deviation values for the absorbance values.

Caco-2 cells = assay: In vitro cytotoxicity, MTS assay; conditions: concentration up to 128 μg/mL; two hours incubation
Method: Method: Compounds AS005H, AS005J, AS004B, AS005K, AS005A and 005D were assayed (at concentrations of 64 and 128 μg/mL) against a human colorectal adenocarcinoma (Caco-2) cell to determine the potential toxic effect to mammalian cells in vitro. Briefly, cells were cultured in Dulbecco's Modified Eagle Medium (DMEM) supplemented with 20% fetal bovine serum (FBS), non-essential amino acids (1×), penicillin-streptomycin at 37° C. with CO2 (5%). Control cells received DMSO alone at a concentration equal to that in drug-treated cell samples. The cells were incubated with the compounds (in triplicate) in a 96-well plate at 37° C. with CO2 (5%) for two hours. The assay reagent MTS 3-(4,5-dimethylthiazol-2-yl)-5-(3-carboxymethoxyphenyl)-2-(4-sulfophenyl)-2H-tetrazolium) (Promega, Madison, WI, USA) was subsequently added and the plate was incubated for four hours. Absorbance readings (at OD490) were taken using a kinetic microplate reader (Molecular Devices, Sunnyvale, CA, USA). The quantity of viable cells after treatment with each compound was expressed as a percentage of the viability of DMSO-treated control cells (average of triplicate wells±standard deviation). The toxicity data was analyzed via a two-way ANOVA, with post hoc Dunnet's multiple comparisons test (P<0.05), utilizing GraphPad Prism 6.0 (GraphPad Software, La Jolla, CA).
as §2, with “of” for “of compounds”, “005D compounds” for “005D”, “triplicate)” for “triplicates)”, “Caco-2” for “VERO”, “values. A two-way ANOVA, with post hoc Dunnet's multiple comparisons test, determined statistical difference (denoted by the asterisk) (P<0.05) between the values obtained for each compound and DMSO (negative control, used as solvent for the compounds).” for “values.”

For `CC(C)=CC(=O)Nc1nnc(S(N)(=O)=O)s1` [CAI0016, 3-Methyl-N-(5-sulfamoyl-1,3,4-thiadiazol-2-yl)but-2-enamide], which MIC [1] is on record?
The MIC was greater than 64 µg/mL.

And the MIC [2]?
The MIC was greater than 64 µg/mL.

And the MIC [3]?
The MIC was greater than 64 µg/mL.

What about the MIC [4] of the same molecule?
The MIC was greater than 64 µg/mL.

What about the MIC [5] of the same molecule?
The MIC was greater than 64 µg/mL.

And the MIC [6]?
The MIC was greater than 64 µg/mL.

And the MIC [7]?
The MIC was 8 µg/mL (≈ 30.5 µM).

And the “toxicity to VERO cells (percent viable cells, MTS)” value (VERO cells)?
Its value is “non-toxic”.

What about the “toxicity to Caco-2 cells (percent viable cells, MTS)” value (Caco-2 cells) of the same molecule?
Its value is “non-toxic”.
